Calls of active or inactive are those of the source. The calls are words filed in the database; no cut-off is given here. Bridge positions count the residues as written; N and C are the ends. Square brackets hold non-standard residues; d marks the D form. Peptide text beside a SMILES is read from it. * marks the point of attachment. X1 = CC[C@H](C)CCCCC(=O)*; Dab = NCC[C@H](N)C(=O)O
How the values were obtained:
Escherichia coli [1] = assay: Bactericidal activity against Escherichia coli ATCC 25922 at 1 times MIC measured after 6 hrs by time-killing kinetics assay; type: functional
[2] = Acute toxicity in BALB/c mouse lung assessed as increase in inter-alveolar space at 20 to 80 mg/kg, ip administered as single dose measured for 7 days by H and E staining method; type: organism-based; conditions: in vivo, 168 h, dose 20-80 mg/kg, time 7 day
Staphylococcus aureus [3] = assay: Antimicrobial activity against Staphylococcus aureus ATCC 25923 assessed as fold increase in MIC in presence of KCl; type: functional
[4] = Acute toxicity in BALB/c mouse lung assessed as congestion at 20 to 80 mg/kg, ip administered as single dose measured for 7 days by H and E staining method; type: organism-based; conditions: in vivo, 168 h, dose 20-80 mg/kg, time 7 day
Escherichia coli [5] = assay: Bactericidal activity against Escherichia coli ATCC 25922 at 2 times MIC measured after 3 hrs by time-killing kinetics assay; type: functional
Staphylococcus aureus [6] = assay: Antimicrobial activity against Staphylococcus aureus ATCC 25923 assessed as increase fold in increase MIC in presence of FeCl3; type: functional
Escherichia coli [7] = assay: Antibiofilm activity against Escherichia coli ATCC 25922 assessed as inhibition of biofilm formation at 4 times MIC measured after 24 hrs by crystal violet staining based assay; type: functional, organism-based
Escherichia coli [8] = assay: Bactericidal activity against Escherichia coli ATCC 25922 at 2 times MIC measured after 30 mins by time-killing kinetics assay; type: functional; conditions: 0.5 h
Staphylococcus aureus [9] = assay: Disruption of membrane integrity in Staphylococcus aureus ATCC 25923 assessed as increase in nucleic acid leakage by measuring PI-uptake level by microplate reader assay; type: functional, organism-based
Escherichia coli [10] = assay: Antibiofilm activity against Escherichia coli ATCC 25922 assessed as inhibition of biofilm formation at 2 times MIC measured after 24 hrs by crystal violet staining based assay; type: functional, organism-based
Staphylococcus aureus [11] = assay: Antimicrobial activity against Staphylococcus aureus ATCC 25923 in presence of NaCl; type: functional, organism-based
Escherichia coli [12] = assay: Antibacterial activity against Escherichia coli ATCC 25922 assessed as inhibition of gentamicin resistance development measured after 15 passages in presence of gentamicin by resistance development assay; type: functional, organism-based
[13] = Acute toxicity in BALB/c mouse spleen assessed as edema at 20 to 80 mg/kg, ip administered as single dose measured for 7 days by H and E staining method; type: organism-based; conditions: in vivo, 168 h, dose 20-80 mg/kg, time 7 day
Staphylococcus aureus [14] = assay: Antimicrobial activity against Staphylococcus aureus ATCC 25923 in presence of KCl; type: functional, organism-based
Escherichia coli [15] = assay: Bactericidal activity against Escherichia coli ATCC 25922 at 1 times MIC measured after 2 hrs by time-killing kinetics assay; type: functional
Escherichia coli [16] = assay: Disruption of membrane integrity in Escherichia coli ATCC 25922 assessed as increase in nucleic acid leakage by measuring PI-uptake level by microplate reader assay; type: functional, organism-based
Staphylococcus aureus [17] = assay: In vivo antimicrobial activity against Staphylococcus aureus ATCC 25923 infected in BALB/C mouse pulmonary infection model administered ip; type: functional, organism-based; conditions: dose 5-10 mg/kg, DDE = dose-dependent effect
Escherichia coli [18] = assay: Antibacterial activity against Escherichia coli ATCC 25922 assessed as inhibition of rifampin resistance development measured after 15 passages in presence of rifampin by resistance development assay; type: functional, organism-based
Staphylococcus aureus [19] = assay: Antibacterial activity against Staphylococcus aureus ATCC 25923 assessed as inhibition of rifampin resistance development measured after 15 passages in presence of rifampin by resistance development assay; type: functional, organism-based
Staphylococcus aureus [20] = assay: Antibacterial activity against Staphylococcus aureus ATCC 25923 infected in BALB/C mouse pulmonary infection model assessed as increase in dilation of alveoli in lung at 10 mg/kg, ip after 24 hrs by H and E staining method; type: functional, organism-based
Staphylococcus aureus [21] = assay: Antimicrobial activity against Staphylococcus aureus ATCC 25923 in presence of FeCl3; type: functional, organism-based
Staphylococcus aureus [22] = assay: Antimicrobial activity against Staphylococcus aureus ATCC 25923 in presence of MgCl2; type: functional, organism-based
Staphylococcus aureus [23] = assay: Antibacterial activity against Staphylococcus aureus ATCC 25923 infected in BALB/C mouse pulmonary infection model assessed as increase in bacterial killing in lung at 10 mg/kg, ip after 24 hrs by H and E staining method; type: functional, organism-based
Escherichia coli [24] = assay: Antimicrobial activity against Escherichia coli ATCC 25922 assessed as reduction in survival rate in presence of >= 0.02 microg/ml of trypsin measured after 6 hrs; type: functional, organism-based
[25] = Acute toxicity in BALB/c mouse spleen assessed as edema at 10 to 40 mg/kg, ip administered as single dose measured for 7 days by H and E staining method; type: organism-based; conditions: in vivo, 168 h, dose 10-40 mg/kg, time 7 day
[26] = Acute toxicity in BALB/c mouse assessed as pathological changes in liver at 10 to 40 mg/kg, ip administered as single dose measured for 7 days by H and E staining method; type: organism-based; conditions: in vivo, 168 h, dose 10-40 mg/kg, time 7 day
Escherichia coli [27] = assay: Antimicrobial activity against Escherichia coli ATCC 25922 assessed as reduction in survival rate in presence of >= 0.02 microg/ml of chymotrypsin measured after 6 hrs; type: functional, organism-based
[28] = Acute toxicity in BALB/c mouse kidney assessed as edema at 10 to 40 mg/kg, ip administered as single dose measured for 7 days by H and E staining method; type: organism-based; conditions: in vivo, 168 h, dose 10-40 mg/kg, time 7 day
[29] = Acute toxicity in BALB/c mouse assessed as mortality at 20 mg/kg, ip administered as single dose measured for 7 days; type: organism-based; conditions: in vivo, 168 h, time 7 day
Escherichia coli [30] = assay: Antimicrobial activity against Escherichia coli ATCC 25922 assessed as reduction in survival rate in presence of 0.02 to 2000 microg/ml of chymotrypsin measured after 6 hrs; type: functional, organism-based
[31] = Acute toxicity in BALB/c mouse assessed as abdominal twitching at 10 to 20 mg/kg, ip administered as single dose measured for 7 days; type: organism-based; conditions: in vivo, 168 h, dose 10-20 mg/kg, time 7 day
[32] = Acute toxicity in BALB/c mouse assessed as mortality at 40 mg/kg, ip measured within 10 mins; type: organism-based; conditions: in vivo
[33] = Acute toxicity in BALB/c mouse assessed as pathological changes in heart at 10 to 40 mg/kg, ip administered as single dose measured for 7 days by H and E staining method; type: organism-based; conditions: in vivo, 168 h, dose 10-40 mg/kg, time 7 day
Escherichia coli [34] = assay: Bactericidal activity against Escherichia coli ATCC 25922 at 0.5 times MIC measured after 1 hr by time-killing kinetics assay; type: functional
Escherichia coli [35] = assay: Bactericidal activity against Escherichia coli ATCC 25922 at 2 times MIC measured after 1 hr by time-killing kinetics assay; type: functional
Escherichia coli [36] = assay: Antimicrobial activity against Escherichia coli ATCC 25922 assessed as reduction in survival rate in presence of 0.02 to 2000 microg/ml of trypsin measured after 6 hrs; type: functional, organism-based
[37] = Acute toxicity in BALB/c mouse spleen assessed as inflammatory cell infiltration at 10 to 40 mg/kg, ip administered as single dose measured for 7 days by H and E staining method; type: organism-based; conditions: in vivo, 168 h, dose 10-40 mg/kg, time 7 day
[38] = Acute toxicity in BALB/c mouse assessed as hyper-mobility at 10 to 20 mg/kg, ip administered as single dose measured for 7 days; type: organism-based; conditions: in vivo, 168 h, dose 10-20 mg/kg, time 7 day
Cell membrane = assay: Induction of cytoplasmic membrane depolarization in Escherichia coli ATCC 25922 assessed as increase in fluorescence intensity at 4 times MIC measured within 1 min by DiSC3-5 dye based fluorescence method; type: subcellular

CC[C@H](C)[C@H](NC(=O)[C@@H]1CCCN1C(=O)[C@H](CC(C)C)NC(=O)[C@@H](N)Cc1ccccc1)C(=O)N[C@H](C(=O)N[C@@H](C)C(=O)N[C@@H](CCCCN)C(=O)N[C@@H](CC(C)C)C(=O)N[C@@H](CC(C)C)C(=O)N[C@@H](CO)C(=O)NCC(=O)N[C@@H](CC(C)C)C(=O)N[C@@H](CC(C)C)C(N)=O)C(C)C (H-FLPIVAKLLSGLL-NH2)
Activity (Escherichia coli [1]): 100%
Activity [2]: Toxic
fold change (FC) (Staphylococcus aureus [3]): 2
Activity [4]: Toxic
Activity (Escherichia coli [5]): 100%
fold change (FC) (Staphylococcus aureus [6]): 2
Activity (Escherichia coli [7]): Active

CC(C)C[C@H](NC(=O)[C@H](CC(C)C)NC(=O)[C@H](CCC(=O)O)NC(=O)[C@H](CCCCN)NC(=O)[C@H](CC(C)C)NC(=O)[C@H](CC(C)C)NC(=O)[C@H](CCCCN)NC(=O)[C@H](C)NC(=O)[C@@H](NC(=O)[C@H](CCCCN)NC(=O)[C@@H]1CCCN1C(=O)[C@H](CC(C)C)NC(=O)[C@@H](N)Cc1ccccc1)C(C)C)C(N)=O (H-FLPKVAKLLKELL-NH2)
Activity (Escherichia coli [8]): 100%
Activity (Staphylococcus aureus [9]): Active
Activity (Escherichia coli [10]): Active
Activity (Staphylococcus aureus [11]): Active
Activity (Escherichia coli [12]): Active
Activity [13]: Toxic
Activity (Staphylococcus aureus [14]): Active
Activity (Escherichia coli [15]): 100%
Activity (Escherichia coli [16]): Active
Activity (Staphylococcus aureus [17]): Dde
Activity (Escherichia coli [18]): Active
Activity (Staphylococcus aureus [19]): Active
Activity (Staphylococcus aureus [20]): Active
Activity (Staphylococcus aureus [21]): Active
Activity (Staphylococcus aureus [22]): Active
Activity (Staphylococcus aureus [23]): Active

CC[C@H](C)CCCCC(=O)N[C@@H](CCN)C(=O)N[C@H](C(=O)N[C@@H](CCN)C(=O)N[C@H]1CCNC(=O)[C@H]([C@@H](C)O)NC(=O)[C@H](CCN)NC(=O)[C@H](CCN)NC(=O)[C@H](CC(C)C)NC(=O)[C@@H](Cc2ccccc2)NC(=O)[C@H](CCN)NC1=O)[C@@H](C)O (X1-[Dab]T[Dab][Dab][Dab][dF]L[Dab][Dab]T; lactam 4-C)
Activity (Escherichia coli [24]): Active
Activity [25]: Non-Toxic
Activity [26]: Non-Toxic
Activity (Escherichia coli [27]): Active
Activity [28]: Non-Toxic
Activity [29]: Toxic
Activity (Escherichia coli [30]): Active
Activity [31]: Toxic
Activity [32]: Toxic
Activity [33]: Non-Toxic
Activity (Escherichia coli [34]): 100%
Activity (Escherichia coli [35]): 100%
Activity (Escherichia coli [36]): Active
Activity [37]: Non-Toxic
Activity [38]: Toxic
Activity (Cell membrane): Active

Reference: ChEMBL document CHEMBL5108051, “Improving the Antimicrobial Performance of Amphiphilic Cationic Antimicrobial Peptides Using Glutamic Acid Full-Scan and Positive Charge Compensation Strategies” (J Med Chem, 2022)
